Earlier results, collected in patent publication US8685425B2, “Microencapsulation product and process” (priority 2004, dated 2014).

CCN(CC)C(=O)c1cccc(C)c1 [DEET, N,N-diethyl-m-toluamide]
solubility of DEET in water: around 1%
